Test results: patent publication US12653809B2, “Urea, amide, and substituted heteroaryl compounds for CBL-B inhibition” (Nurix Therapeutics, Inc., priority 2019, dated 2026)
Like-named read-outs stand apart in the source and are kept apart here.

Target: T1, Cbl-b (truncated variant, UniProt number Q13191) (Homo sapiens, UniProt Q13191)
T1 construct: made in house
Test: Cbl-b activity assay (TR-FRET, interaction of Cbl-b with UbcH5B-Ub)
Assay type: biochemical

[1] = high conditions: 100 mM NaCl, 60 nM Src kinase, 12 nM Cbl-b, read-out: Cbl-b activity IC50
[2] = Biological Example 1A, low or high conditions not stated, read-out: IC50 values in the Cbl-b inhibition assay of Biological Example 1A

T1 sequence (Q13191 36-427): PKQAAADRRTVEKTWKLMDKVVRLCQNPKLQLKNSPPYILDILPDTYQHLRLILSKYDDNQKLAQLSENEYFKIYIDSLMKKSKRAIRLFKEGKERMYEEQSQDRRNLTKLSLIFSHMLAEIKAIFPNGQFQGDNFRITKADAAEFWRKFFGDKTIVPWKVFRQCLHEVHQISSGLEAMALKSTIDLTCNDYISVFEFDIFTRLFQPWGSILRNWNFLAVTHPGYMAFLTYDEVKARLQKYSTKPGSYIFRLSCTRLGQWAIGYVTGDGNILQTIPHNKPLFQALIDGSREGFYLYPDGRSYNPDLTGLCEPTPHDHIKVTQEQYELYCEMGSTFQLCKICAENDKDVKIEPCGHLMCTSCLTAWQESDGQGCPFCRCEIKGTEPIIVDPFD

Row | SMILES | IC50 [1] | IC50 (low conditions: 50 mM NaCl, 30 nM Src kinase, 12 nM Cbl-b, read-out: Cbl-b activity IC50) | IC50 [2]
1 | Cn1cnnc1CC1(c2cccc(NC(=O)N3CCOc4cccnc43)c2)COC1 [Example 23, N-(3-(3-((4-methyl-4H-1,2,4-triazol-3-yl)methyl)oxetan-3-yl)phenyl)-2,3-dihydro-4H-pyrido[3,2-b][1,4]oxazine-4-carboxamide] | 100 to 1000 nM |  | 
2 | CC(Sc1nncn1C)c1cccc(C(=O)Nc2ccccc2)c1 (stereo not shown) [Example 33, 3-(1-((4-methyl-4H-1,2,4-triazol-3-yl)thio)ethyl)-N-phenylbenzamide] |  | ≥ 5000 nM | 
3 | Cc1cccc(NC(=O)c2cccc(C3(Cc4nncn4C)COC3)c2)n1 [Example 38, 3-(3-((4-methyl-4H-1,2,4-triazol-3-yl)methyl)oxetan-3-yl)-N-(6-methylpyridin-2-yl)benzamide] | ≥ 5000 nM |  | ≥ 5000 nM
4 | C[C@H](Cc1nncn1C)c1ccnc(C(=O)Nc2cccc(C(F)(F)F)n2)c1 [Example 14, 4-[(2R)-1-(4-methyl-4H-1,2,4-triazol-3-yl)propan-2-yl]-N-[6-(trifluoromethyl)pyridin-2-yl]pyridine-2-carboxamide] | 100 to 1000 nM |  | 100 to 1000 nM
5 | CNC(=O)C1(C(F)(F)F)CCN(C(=O)Nc2cccc([C@H](C)Cc3nncn3C)c2)C1 (stereo partly drawn) [Example 20, N^3-methyl-N^1-(3-((R)-1-(4-methyl-4H-1,2,4-triazol-3-yl)propan-2-yl)phenyl)-3-(trifluoromethyl)pyrrolidine-1,3-dicarboxamide] | 100 to 1000 nM |  | 
6 | C[C@H](Sc1nncn1C)c1cccc(NC(=O)N2CC(OC(F)(F)F)C2)c1 [Example 52, (S)—N-(3-(1-((4-methyl-4H-1,2,4-triazol-3-yl)thio)ethyl)phenyl)-3-(trifluoromethoxy)azetidine-1-carboxamide] | ≥ 5000 nM |  | 
7 | C[C@H](Sc1nncn1C)c1cccc(NC(=O)N2CC(c3cnn(C)c3)C(C)(C)C2)c1 (stereo partly drawn) [Example 53, 3,3-dimethyl-4-(1-methyl-1H-pyrazol-4-yl)-N-(3-((S)-1-((4-methyl-4H-1,2,4-triazol-3-yl)thio)ethyl)phenyl)pyrrolidine-1-carboxamide] | ≥ 5000 nM |  | 
8 | CC1CN(C(=O)Nc2cccc([C@H](C)Sc3nncn3C)c2)CC1CO (stereo partly drawn) [Example 54, 3-(hydroxymethyl)-4-methyl-N-(3-((S)-1-((4-methyl-4H-1,2,4-triazol-3-yl)thio)ethyl)phenyl)pyrrolidine-1-carboxamide] | ≥ 5000 nM |  | 
9 | Cn1cnnc1CC1(c2cccc(N3CC4C(C(F)(F)F)CCN4C3=O)c2)COC1 (stereo not shown) [Example 32, 2-(3-(3-((4-methyl-4H-1,2,4-triazol-3-yl)methyl)oxetan-3-yl)phenyl)-7-(trifluoromethyl)hexahydro-3H-pyrrolo[1,2-c]imidazol-3-one] | 1000 to 5000 nM |  | 1000 to 5000 nM
10 | C[C@H](Cc1nncn1C)c1cccc(NC(=O)N2CCCc3cccnc32)c1 [Example 9, (R)—N-(3-(1-(4-methyl-4H-1,2,4-triazol-3-yl)propan-2-yl)phenyl)-3,4-dihydro-1,8-naphthyridine-1(2H)-carboxamide] | 100 to 1000 nM |  | 100 to 1000 nM
11 | Cn1cnnc1CC1(c2cccc(NC(=O)N3CC4(CNC4)Oc4cccnc43)c2)COC1 [Example 27, N-(3-(3-((4-methyl-4H-1,2,4-triazol-3-yl)methyl)oxetan-3-yl)phenyl)spiro[azetidine-3,2′-pyrido[3,2-b][1,4]oxazine]-4′(3′H)-carboxamide] | < 100 nM |  | 
12 | C[C@H](Sc1nncn1C)c1cccc(NC(=O)N2Cc3cccc(O)c3C2)c1 [Example 45, (S)-4-hydroxy-N-(3-(1-((4-methyl-4H-1,2,4-triazol-3-yl)thio)ethyl)phenyl)isoindoline-2-carboxamide] | 100 to 1000 nM |  | 100 to 1000 nM
13 | C[C@H](Sc1nncn1C)c1cccc(-c2cc(-c3cccc(C#N)c3)no2)c1 [Example 62, (S)-3-(5-(3-(1-(4-methyl-4H-1,2,4-triazol-3-ylthio)ethyl)phenyl)isoxazol-3-yl)benzonitrile] | 1000 to 5000 nM |  | 

More lines, now with the values ahead:

Row | IC50 [1] | IC50 (low conditions: 50 mM NaCl, 30 nM Src kinase, 12 nM Cbl-b, read-out: Cbl-b activity IC50) | IC50 [2] | SMILES
14 | 1000 to 5000 nM |  | 1000 to 5000 nM | C[C@H](Sc1nncn1C)c1cccc(-n2cc(-c3ccc(Cl)cc3)nn2)c1 [Example 73, (S)-4-(4-chlorophenyl)-1-(3-(1-((4-methyl-4H-1,2,4-triazol-3-yl)thio)ethyl)phenyl)-1H-1,2,3-triazole]
15 | ≥ 5000 nM |  |  | C[C@H](Sc1nncn1C)c1cccc(NC(=O)Nc2ccc(CC(=O)N(C)C)cc2)c1 [Example 150, (S)—N,N-dimethyl-2-(4-(3-(3-(1-((4-methyl-4H-1,2,4-triazol-3-yl)thio)ethyl)phenyl)ureido)phenyl)acetamide]
16 | 1000 to 5000 nM |  | 1000 to 5000 nM | C[C@H](Sc1nncn1C)c1cccc(-n2ncc(-c3ccc(C(N)=O)cc3)n2)c1 [Example 86, (S)-4-(2-(3-(1-(4-methyl-4H-1,2,4-triazol-3-ylthio)ethyl)phenyl)-2H-1,2,3-triazol-4-yl)benzamide]
17 | ≥ 5000 nM |  |  | C[C@H](Sc1nncn1C)c1cccc(NC(=O)N2CCOCC2)c1 [Example 128, N-[3-[(1S)-1-[(4-methyl-4H-1,2,4-triazol-3-yl)sulfanyl]ethyl]phenyl]morpholine-4-carboxamide]
18 | 1000 to 5000 nM |  |  | C[C@H](Sc1nncn1C)c1cccc(-n2ncc(-c3cccc(Cl)c3)n2)c1 [Example 78, 4-(3-chlorophenyl)-2-[3-[(1S)-1-[(4-methyl-4H-1,2,4-triazol-3-yl)sulfanyl]ethyl]phenyl]-2H-1,2,3-triazole]
19 | ≥ 5000 nM |  |  | C[C@H](Sc1nncn1C)c1cccc(NC(=O)N2Cc3nccnc3C2)c1 [Example 145, (S)—N-(3-(1-((4-methyl-4H-1,2,4-triazol-3-yl)thio)ethyl)phenyl)-5,7-dihydro-6H-pyrrolo[3,4-b]pyrazine-6-carboxamide]
20 | 1000 to 5000 nM |  | 1000 to 5000 nM | C[C@@H](Sc1nncn1C)c1cccc(-c2n[nH]c3ccccc23)c1 [Example 108, (R)-3-(3-(1-((4-methyl-4H-1,2,4-triazol-3-yl)thio)ethyl)phenyl)-1H-indazole]
21 | ≥ 5000 nM |  |  | C[C@H](Sc1nncn1C)c1cccc(NC(=O)N2CCOCC2CO)c1 (stereo partly drawn) [Example 146, 3-(hydroxymethyl)-N-(3-((S)-1-((4-methyl-4H-1,2,4-triazol-3-yl)thio)ethyl)phenyl)morpholine-4-carboxamide]
22 | ≥ 5000 nM |  | ≥ 5000 nM | C[C@H](Sc1nncn1C)c1cccc(-n2cc(-c3ccc(C(=O)O)cc3)nn2)c1 [Example 81, (S)-4-(1-(3-(1-(4-methyl-4H-1,2,4-triazol-3-ylthio)ethyl)phenyl)-1H-1,2,3-triazol-4-yl)benzoic acid]
23 | ≥ 5000 nM |  |  | C[C@H](Sc1nncn1C)c1cccc(NC(=O)N2CC(C)(F)C2)c1 [Example 132, 3-fluoro-3-methyl-N-[3-[(1S)-1-[(4-methyl-4H-1,2,4-triazol-3-yl)sulfanyl]ethyl]phenyl]azetidine-1-carboxamide]
24 | 1000 to 5000 nM |  |  | COc1ccc(-c2cn(-c3cccc([C@H](C)Sc4nncn4C)c3)nn2)cc1 [Example 75, (S)-4-(4-methoxyphenyl)-1-(3-(1-((4-methyl-4H-1,2,4-triazol-3-yl)thio)ethyl)phenyl)-1H-1,2,3-triazole]
25 | ≥ 5000 nM |  | ≥ 5000 nM | C[C@H](Sc1nncn1C)c1cccc(-c2cc(-c3ccc(S(C)(=O)=O)cc3)no2)c1 [Example 66, ((S)-5-(3-(1-(4-methyl-4H-1,2,4-triazol-3-yl)thio)ethyl)phenyl)-3-(4-(methylsulfonyl)phenyl)isoxazole]
26 | ≥ 5000 nM |  |  | C[C@H](Sc1nncn1C)c1cccc(NC(=O)N2CCN(C3CC3)C(=O)C2)c1 [Example 156, (S)-4-cyclopropyl-N-(3-(1-((4-methyl-4H-1,2,4-triazol-3-yl)thio)ethyl)phenyl)-3-oxopiperazine-1-carboxamide]
27 | ≥ 5000 nM |  |  | C[C@H](Sc1nncn1C)c1cccc(NC(=O)N2CCOC(c3ncon3)C2)c1 (stereo partly drawn) [Example 154, N-(3-((S)-1-((4-methyl-4H-1,2,4-triazol-3-yl)thio)ethyl)phenyl)-2-(1,2,4-oxadiazol-3-yl)morpholine-4-carboxamide]
